For experiment [1], the system named is intestinal epithelial cells. The note with it: cited from earlier work.
The next experiment has as its system C57BL/6J mice. The experiment can be described thus: Histology and small intestinal morphometric measurements. The experiment is classed as in vivo. The settings on record: Swiss-rolled H & E stained small intestinal sections, n=5/group.
The next experiment has as its system fecal microbiota. As to the kind of experiment: Fecal microbiota 16S rRNA sequencing (ANOSIM, SIMPER). The experiment is classed as in vivo, mice. The note with it: for mean % abundance: day 7 feces.
The next experiment deals with small intestinal mucosa. The experiment can be described thus: RNA sequencing (RNA-Seq) of the distal small intestinal mucosa. The experiment is classed as in vivo, mice. The note with it: indole co-administered with NSAID; degree of up-regulation vs control mice. From the text: (§1) Eight- to 10-week-old specific-pathogen-free C57BL/6J mice were purchased and allowed to acclimate for 2 weeks. Mice were fed standardized laboratory rodent diet and sterile water ad libitum. Mice were randomly divided into the following 4 groups (n=5 mice/group): 1) NSAID (indomethacin); 2) indole; 3) NSAID+indole; and, 4) untreated controls. Mice were then rehoused on the basis of treatment group assignment, with 5 animals/group-cage. To induce NSAID enteropathy, mice in group 1 were gavaged once daily with indomethacin (5 mg/kg; for 7 days; Sigma Aldrich, St. Louis, Mo.) dissolved in dimethylysulfoxide (DMSO) (Sigma Aldrich, St. Louis, Mo.) and further diluted in phosphate buffered saline (PBS). Mice in group 2 received indole by gavage (20 mg/kg; once daily for 7 days; Sigma Aldrich, St. Louis, Mo.) dissolved in sterile water warmed to 55° C. Mice in group 3 received indole co-administered with indomethacin by gavage at the dosages described above. All mice were gavaged with equal volumes (200 μL) and equal concentrations of DMSO (0.001%).
Feces were collected daily by placing individual animals in sterile plastic cups that were RNase- and DNase-free until they passed feces. The mice were immediately returned to their home cages and the feces immediately flash frozen at −80° C. […]
RNA was extracted from the mucosal scrapings using an RNeasy mini kit (QIAGEN, Redwood City, Calif.) following the manufacturer's instructions and including on-column DNase treatment. RNA quantity was determined using a Nanodrop spectrophotometer (Fisher Thermoscientific) and the quality was assessed using the Nano6000 chip on a Bioanalyzer 2100(Agilent Technologies). […] Differentially expressed genes were determined using EdgeR based on the matrix of gene counts (Robinson M D, McCarthy D J, Smyth G K. edgeR: a Bioconductor package for differential expression analysis of digital gene expression data. Bioinformatics (Oxford, England) 2010; 26:139-40). Gene lists were analyzed through use of QIAGEN's Ingenuity® Pathway Analysis (IPA, QIAGEN, Redwood City, Calif. http://www.qiagen.com/ingenuity). […]

The subject of experiment [2] is fecal tryptophan metabolites. The experiment can be described thus: Fecal tryptophan metabolites by LC-MS. The experiment is classed as in vivo, mice.
Source text: as §1
Feces were collected daily by placing individual animals in sterile plastic cups that were RNase- and DNase-free until they passed feces. The mice were immediately returned to their home cages and the feces immediately flash frozen at −80° C. All animals were euthanized via CO2 asphyxiation on day 8 (i.e., after 7 days of treatment). The small intestine was harvested, opened longitudinally, rinsed with ice-cold PBS, and the distal ⅓ of the intestinal mucosa was scraped for tissue gene expression analysis. The remaining small intestine was fixed in 4% paraformaldehyde, Swiss-rolled, paraffin-embedded, and stained with hematoxylin and eosin. The spleen and mesenteric lymph nodes (MLN) were harvested, and immediately placed in ice cold RPMI-1640-c+10% fetal calf serum (FCS: Life Technologies, Carlsbad, Calif.), homogenized, and prepared as a single cell suspension for flow cytometric analysis as previously described (Wang N, Strugnell R, Wijburg O, Brodnicki T. Measuring bacterial load and immune responses in mice infected with Listeria monocytogenes. Journal of Visualized Experiments: JoVE 2011).
Metabolites from the fecal contents were extracted using a solvent-based method as previously described (Sridharan G V, Choi K, Klemashevich C, Wu C, Prabakaran D, Pan L B, Steinmeyer S, Mueller C, Yousofshahi M, Alaniz R C, et al. Prediction and quantification of bioactive microbiota metabolites in the mouse gut. Nature Communications 2014; 5:5492). Briefly, fecal pellets were homogenized using a homogenizer (Omni International) with equal volume of cold methanol and half volume of chloroform. The samples were then centrifuged at 10,000 g at 4° C. (Thermo Fisher Scientific) for 10 min. Supernatant was passed through a 70-μm sterile nylon cell strainer (Falcon) and 0.6 ml of ice cold water was added. The samples were vortex and centrifuged again at 10,000 g for 5 minutes. The upper phase and lower phase were collected and 400 μl of upper phase was dried to a pellet using a vacufuge (Eppendorf, Hauppauge, N.Y.), and then reconstituted in 50 μl of methanol/water (1:1, v/v). The samples were stored at −80° C. until analysis. Tryptophan metabolites in the samples were detected and quantified on a triple quadrupole linear ion trap mass spectrometer (3200 QTRAP, AB SCIEX, Foster City, Calif.) coupled to a binary pump HPLC (Prominence LC-20, Shimazu, Concord, Ontario, Canada).

Setting [3] is: unweighted Unifrac distance metric, day 7.

Protocol for C57BL/6J mice: Eight- to 10-week-old specific-pathogen-free C57BL/6J mice were purchased and allowed to acclimate for 2 weeks. Mice were fed standardized laboratory rodent diet and sterile water ad libitum. […] Mice were then rehoused on the basis of treatment group assignment, with 5 animals/group-cage. To induce NSAID enteropathy, mice in group 1 were gavaged once daily with indomethacin (5 mg/kg; for 7 days; Sigma Aldrich, St. Louis, Mo.) dissolved in dimethylysulfoxide (DMSO) (Sigma Aldrich, St. Louis, Mo.) and further diluted in phosphate buffered saline (PBS). […] All mice were gavaged with equal volumes (200 μL) and equal concentrations of DMSO (0.001%).
The slides were scored as previously described for intestinal inflammation (Jia Q, Lupton J R, Smith R, Weeks B R, Callaway E, Davidson L A, Kim W, Fan Y Y, Yang P, Newman R A, et al. Reduced colitis-associated colon cancer in Fat-1 (n-3 fatty acid desaturase) transgenic mice. Cancer Research 2008; 68:3985-91). Briefly, mucosal injury was determined by the following parameters scored from 0 (no evidence) to 3 (marked): mucosal ulceration, mucosal erosion, and presence of squamified epithelium. Inflammatory changes were scored similarly based on the following parameters: lymphocytic infiltration, plasma cell infiltration, and neutrophilic infiltration. Finally, an overall evidence of injury score was used to document total injury graded from 0 (none) to 4 (marked). Morphological parameters were obtained from digitally scanned slides using SPOT vr 5.0 software. Three sets of measurements from 3 separate sections were recorded for each animal by an observer blinded to treatment group. Measurements consisted of villus height, crypt depth, and submucosal mural thickness.

Regarding `c1ccc2[nH]ccc2c1` [Indole, indole], the NF-κB signaling entry in experiment [1] is listed as “inhibit”. Moreover, in experiment [1] (in vitro, earlier work of the inventors), the “anti-inflammatory effects and expression of genes associated with tight cell junctions” value is “has anti-inflammatory effects on intestinal epithelial cells and upregulates expression of genes associated with tight cell junctions”. Moreover, the microscopic pathology scores result with C57BL/6J mice is on record as “not different”. Also, in the experiment with fecal microbiota (fecal 16S rRNA sequences, Day 0 vs Day 7), the “abundance of members of the phyla Firmicutes and Bacteroidetes” value is recorded as “no significant difference”. The mean % abundance in the experiment with fecal microbiota (phylum Unassigned, Other) is reported as 1.90E−03%; with fecal microbiota (phylum k_Bacteria, Other) it was 3.81E−03%; with fecal microbiota (phylum k_Bacteria, p_Acidobacteria), 0%; in the experiment on fecal microbiota (phylum k_Bacteria, p_Actinobacteria), 0.0381%; in the experiment with fecal microbiota (phylum k_Bacteria, p_Bacteroidetes) it was 24.6%; in the experiment with fecal microbiota (phylum k_Bacteria, p_Cyanobacteria), 9.51E−03%. For the same compound, the mean % abundance was found to be 74.7% in the experiment on fecal microbiota (phylum k_Bacteria, p_Firmicutes); 0.0285% with fecal microbiota (phylum k_Bacteria, p_Proteobacteria); 0.656% in the experiment on fecal microbiota (phylum k_Bacteria, p_Tenericutes); 1.90E−03% in the experiment with fecal microbiota (phylum k_Bacteria, p_Verrucomicrobia). Moreover, the “Pairwise ANOSIM R-value vs Control” value in the experiment on fecal microbiota (setting [3]) was determined as 0.2. The “Pairwise ANOSIM R-value vs NSAID” value with fecal microbiota (setting [3]) is 0.2615. Further, the “Pairwise ANOSIM R-value vs NSAID + Indole” value in the experiment on fecal microbiota (setting [3]) stood at 0.1938. In the experiment with small intestinal mucosa, the “transcription of pro-inflammatory cytokines (IL-1α, IL-1β, TNF, IL-6) and chemokines (CXCL1, CXCL3, CXCL2, CXCL5, CCL2, CCL7)” value is “not significantly different than control mice”. Further, the “Magnitude of change in fecal concentration between Days 0 and 7” value in experiment [2] (Indole, group effect ↑) was determined as 5.3. For the same compound, the “fecal indole concentrations relative to controls” value in experiment [2] (feces) is recorded as “significantly more indole”.
